# Experimental data from the OPERA property sets (Mansouri et al. 2018).
SMILES,logP,solubility [mM],log10 OH rate constant (cm³/molecule/s)
COc1ccc(C(=O)CS(=O)(=O)c2ccc(C)cc2)cc1,2.47,–,–
COc1nc(C)nc(=NC(O)=NS(=O)(=O)c2ccccc2C(=O)O)[nH]1,1.7,–,–
N#CCCCCCC#N,0.05,–,–
CC(C)(C)NSc1nc2ccccc2s1,4.67,–,–
C=CCOc1ccccc1OCC(CNC(C)C)OC(=O)CCCC (configuration not stated),4,–,–
ClC1=C(Cl)C2(Cl)C(Cl)(Cl)C3CC(Cl)C1C3C2(Cl)Cl (configuration not stated),6.09,–,–
O=C(O)c1ccc(-c2ccccc2)cc1,3.75,–,–
C=CC(=O)NCCc1cnc[nH]1,-0.21,–,–
Cc1c(Cl)ccc(Cc2c(Cl)cccc2Cl)c1Cl,7.2,–,–
CC(C)Oc1c(Br)c(Br)n(C)c1C(=O)Nc1nn[nH]n1,2.52,–,–
Clc1ccc(Cl)c(-c2ccccc2Cl)c1,5.48,–,–
CCNc1ncc(-c2ccncc2)cc1C#N,2.33,–,–
CCc1ccc2cc3ccccc3cc2c1,–,0.00013,–
CCCN1CCOC2c3cccc(O)c3CCC21 (configuration not stated),2.22,–,–
COc1cc(S(C)=O)ccc1-c1cn2cccnc2n1 (configuration not stated),0.63,–,–
COCCn1cnc2[nH]c(=O)n(C)c(=N)c21,-1.49,–,–
COc1c(Cl)cc(Cl)c(Cl)c1Cl,4.75,–,–
CC1CCCCC1O (configuration not stated),1.82,–,–
O=C(O)/C=C/C(=O)c1cccnc1,0.26,–,–
CC(C)CN=C=S,2.82,–,–
O=C(O)CNC(=O)c1ccccc1I,0.97,–,–

SMILES,logP,solubility [mM],log10 OH rate constant (cm³/molecule/s)
CCCCCCOCCOCCO,1.7,–,–
CCN(CC)CCNC(=O)c1ccc(N)c(Cl)c1,1.7,–,–
Clc1ccc2ccccc2c1,3.9,–,–
CCN(CC)C(=O)CCC(=O)OCn1ncc2c(O)ncnc21,-0.22,–,–
Cc1sc(C(=O)Nc2nnn[nH]2)c(OC(C)C)c1Br,1.72,–,–
Oc1c(Cl)ccc(Cl)c1Cl,–,2.28,–
NC(Cc1ccc(O)c(O)c1)C(=O)OCC1CCCCO1 (configuration not stated),0.47,–,–
N#CCCl,–,1320,–
CC(=O)N[C@@H](Cc1ccc(O)cc1)C(=O)O,1.32,–,–
N=C(N)NN=Cc1ccc([N+](=O)[O-])cc1,0.87,–,–
Cc1nc(N2CCOCC2)c(C#N)cc1-c1ccccc1,3.65,–,–
CCOC1OC2OC3(C)CCC4C(CO)CCC(C1C)C24OO3 (configuration not stated),2.08,–,–
CC(Oc1ccc(Oc2ccc(C(F)(F)F)cn2)cc1)C(=O)O (configuration not stated),3.18,–,–
O=C1CCCC1,0.38,–,–
CN(C(=O)C(Cl)Cl)c1ccc(OC(=O)c2ccco2)cc1,2.24,–,–
OCCC(F)(F)C(F)(F)C(F)(F)C(F)(F)C(F)(F)C(F)(F)C(F)(F)C(F)(F)F,5.58,–,–
CCCS(=O)c1ccc2[nH]c(NC(=O)OC)nc2c1 (configuration not stated),1.27,–,–
Brc1ccc(-c2ccccc2)cc1,4.96,–,–
CC(C)/N=c1/cc2n(-c3ccc(Cl)cc3)c3ccccc3nc-2cc1Nc1ccc(Cl)cc1,7.66,–,–
CCOC(=O)CNC(=O)c1cn(CC)c2nc(C)ccc2c1=O,2.07,–,–
CCN(O)CC,-0.17,–,–

SMILES,logP,solubility [mM],log10 OH rate constant (cm³/molecule/s)
ClC1=CC2(Cl)C3CC(Cl)C(Cl)C3C1(Cl)C2(Cl)Cl (configuration not stated),5.56,–,–
CCOC(=O)c1ccccc1C(=O)OCC,2.42,–,–
Nc1cc([N+](=O)[O-])ccc1Cl,2.23,–,–
OCCC(F)(F)C(F)(F)C(F)(F)C(F)(F)F,3.3,–,–
CCCCCCOC(=O)c1ccc(N)cc1,3.96,–,–
N[C@@H](Cc1ccc(O)c(O)c1)C(=O)OCCc1ccccc1,1.76,–,–
CN(C)P(=O)(N(C)C)N1CCCC1,0.82,–,–
N=C(N)NN=Cc1cccs1,0.98,–,–
CCOP(=S)(OCC)Oc1ccc(N)cc1,–,1.49,–
CCOC(=O)[C@@H](N)Cc1ccc(O)c(O)c1,0.28,–,–
c1ccc(Cn2ccnc2)cc1,1.6,–,–
CCCCSP(=O)(SCCCC)SCCCC,5.7,–,–
N=c1cc2n(-c3ccc(Cl)cc3)c3ccccc3nc-2cc1Nc1ccc(Cl)cc1,6.47,–,–
COCCNCc1cc2cc(S(N)(=O)=O)sc2s1,0.32,–,–
Clc1cc2c(Cl)cc(Cl)c(Cl)c2c(Cl)c1Cl,7.5,–,–
C[C@H](CSC(=O)c1ccccc1)C(=O)N1C[C@@H](Sc2ccccc2)C[C@H]1C(=O)O,4.4,–,–
CCCCN=C=S,2.92,–,–
NC(=O)CN1CCCC1=O,-1.54,–,–
COC(=O)C1=C(C)NC(C)=C(C(=O)O[C@@H]2CCCN(Cc3ccccc3)C2)[C@@H]1c1cccc([N+](=O)[O-])c1,4.61,–,–
O=P1(N(CCCl)CCCl)NCCCO1 (configuration not stated),–,153,–
N=C(N)NN=Cc1ccc(Br)cc1,1.3,–,–

SMILES,logP,solubility [mM],log10 OH rate constant (cm³/molecule/s)
Cc1ccc(C=[N+]([O-])C(C)(C)C)cc1,1.74,–,–
Clc1ccc2c(Cl)ccnc2c1,3.57,–,–
CN(C)P1(=O)N(C)CCN1C,0.02,–,–
CNS(=O)(=O)c1ccc(Cl)cc1,1.92,–,–
C=CC(=O)OCCOC,0.56,–,–
CC1=CCC(C(C)C)=CC1,4.5,–,–
Cc1ccc(OCCN(C)C)cc1,2.17,–,–
CC(C)OC(C)C,1.52,–,–
C=C(C)C(N)=O,-1.11,–,–
CCn1cc(C(=O)O)c(=O)c2cc(F)c(N3CCNC(C)C3)c(F)c21 (configuration not stated),-0.3,–,–
COC1=CC(=O)C=C(OC)C1=O,-0.06,–,–
CCC(C)O (configuration not stated),–,–,-11
ClCc1ccc(Cl)cc1,3.18,–,–
OCc1c2ccccc2cc2ccccc12,3.04,–,–
C[Si]1(C)O[Si](C)(C)O[Si](C)(C)O[Si](C)(C)O1,6.74,–,–
CCOC1OC2OC3(C)CC(O)C4C(C)CCC(C1C)C24OO3 (configuration not stated),2.7,–,–
O=C(O)CC[Se]Cc1ccccc1,1.67,–,–
CCCC(O)CC (configuration not stated),1.65,–,–
NS(=O)(=O)c1cc2cc(CNCCO)sc2s1,-0.72,–,–
